In patent US11572508B2, “Non-linear surfactant” (Powdermet, Inc., priority 2018, dated 2023):

How the values were obtained:
[1] = emulsion suspension of liquid epoxy resin: particle size dispersion, suspension stability, pumping through sand packs; format: physicochemical; details: 71 mM surfactant
Source text: The suspension was maintained for up to 1 month unchanged.

[2] = pH-controlled solubility and rock-face adsorption of isoelectric surfactant; format: physicochemical
Source text: An example of an isoelectric non-linear molecular surfactant is a modified rigid ring structure with a zwitterionic to control solubility and surface activity. Molecular surfactant is defined as a group of atoms bonded together, representing the smallest fundamental unit of a chemical compound. In one non-limiting descriptive example, cholic acid is bound to a zwitterionic bi-functional compound, such as threonine. One (1) equivalent of cholic acid is suspended in an aprotic polar solvent, tetrahydrofuran with the addition of a base catalysis, pyridine. The primed rigid ring moiety structure is titrated with one (1) to three (3) equivalents of a zwitterionic coupling agent, and/or silane threonine, in an aprotic polar solvent. Purified product has applications in surface modification chemistry across materials and production markets. One non-limiting identified application is the oil and gas industry's unconventional resource collections through improving production recovery by controlling the rock wettability and reducing the translation motion energy through rock porosity and fractures. The zwitterionic nature of the isoelectric non-linear molecular surfactant enables the production recovery increase by allowing the production team to control when the surfactant becomes insoluble and favors surface adsorption to the formation's porous and fracture surface. […]

Structure (SMILES) | time suspension was maintained unchanged ([1]; 23 wt. % solids epoxy resin suspension) | particle size dispersion D50 of nanoemulsion ([1]; 23 wt. % solids suspension of bisphenol A/epichlorohydrin-derived liquid epoxy resin) [nm] | pH at which surfactant is triggered to adsorb to the rock face ([2]; formation rock face) | pH at which surfactant is soluble in pumping solutions ([2]; pumping solutions)
C[C@H](CCC(=O)O)[C@H]1CC[C@H]2[C@@H]3[C@H](O)C[C@@H]4C[C@H](O)CC[C@]4(C)[C@H]3C[C@H](O)[C@]12C [3α,7α,12α-trihydroxy-5β-cholan-24-oic acid] | up to 1 month | 450 | – | –
CC(O)C(NC(=O)CCC(C)C1CCC2C3C(O)CC4CC(O)CCC4(C)C3CC(O)C12C)C(=O)O (stereo not shown) | – | – | 5.6 | below 5.5
